Structures are written as SMILES.

In this data set the test system is HeLa. As to the kind of experiment: Cytotoxicity against human HeLa cells assessed as cell death at 1 uM after 24 hrs MTT assay relative to control. The data set is classed as cell-based.

Take `O=C(/C=C/c1ccccc1)N[C@@H](c1ccccc1)[C@@H](OC(=O)c1ccccc1)C(=O)NC1CCCCC1`: the Activity is given as < 10%.

Values taken from ChEMBL document CHEMBL4024730 (Bioorg Med Chem Lett, 2017).
